What was measured:
[1] = test system: thrombus formation on cotton thread; assay: Antithrombotic activity: thrombus formation on cotton thread in extracorporeal circulation path; assay type: in vivo, Wistar male rats; conditions: oral, rat, 2 hours prior, mean ± standard error, control 25.9 ± 1.2
Method: Effect of a test compound on thrombus formation on cotton thread which was kept in an extracorporeal circulation path for the artery and vein in anesthesized rats was examined in a manner similar to the method of Smith et al. [Br. J. Pharmacol., 77, 29 (1982)].
Wistar male rats weighing 250 to 400 g were anesthesized by intraperitoneal administration of sodium pentobarbital at a dose of 30 mg/kg and an extracorporeal circulation path made of a polyethylene tube having a length of 30 cm extending from the right carotid artery to the left jugular vein was installed. Cotton thread (No. 30) having a length of 5.5 cm was inserted into the circulation path and a weight of thrombus formed on the cotton thread during blood perfusion for 15 minutes was measured. Similar operations were performed twice and the total weight of thrombus formed by the two blood perfusions was shown as the weight of thrombus. […]

[2] = molecular target: T1, TXA2 /prostaglandin H2 receptor (Cavia porcellus, UniProt A0A286Y4I8); assay: Anti-aggregatory effect: inhibition of platelet aggregation induced by U-46619 (TXA2-antagonizing action); assay type: cell-based, guinea pig (Hartley strain); conditions: minimum concentration inhibiting aggregation by 30% or more; U-46619 0.5-1 μM; guinea pig PRP
T1 construct: platelet rich plasma (PRP) was obtained; endogenous in cells; host or cells: guinea pig (Hartley) platelets in platelet rich plasma
T1 sequence (A0A286Y4I8 1-347): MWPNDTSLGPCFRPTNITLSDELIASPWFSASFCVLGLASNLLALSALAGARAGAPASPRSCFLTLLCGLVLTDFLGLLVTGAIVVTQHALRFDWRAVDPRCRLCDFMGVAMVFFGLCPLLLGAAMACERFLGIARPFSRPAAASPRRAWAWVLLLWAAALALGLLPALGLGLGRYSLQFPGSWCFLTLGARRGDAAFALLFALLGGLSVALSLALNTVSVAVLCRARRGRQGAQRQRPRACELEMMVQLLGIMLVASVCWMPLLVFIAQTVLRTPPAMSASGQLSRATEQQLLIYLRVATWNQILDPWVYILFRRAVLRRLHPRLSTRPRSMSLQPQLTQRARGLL
Method: TEST ON ANTI A[…] (TXA2 -AN[…])
Using guinea pig platelet, influence of the compounds on platelet aggregation induced by U-46619 (9,11-dideoxy-9α,11a-methanoepoxyprostaglandin F2α; manufactured by Cayman Chemical Co., Ltd.) which was a TXA2 /prostaglandin H2 receptor stimulant was examined.
Male guinea pig (Hartley strain; body weight, 300 to 600 g) was anesthesized by intraperitoneal administration of sodium pentobarbital (30 mg/kg) and blood was collected from the descending aorta of the abdomen with a 1/10 volume of 3.8% trisodium citrate. By centrifugation (KC-70: manufactured by Kubota Co., Ltd.) at 800 rpm for 15 minutes, platelet rich plasma (PRP) was obtained, Platelet aggregation induced by U-46619 (0.5-1 μM) was determined by photometry [Born, G.V.R. et al., Nature (London), 194, 927-929 (1962)]. A test compound was pretreated for 3 minutes and the ability to inhibit aggregation was determined. The minimum concentration which inhibits platelet aggregation by 30% or more was defined as the minimum effective concentration (MEC) of the test compound.

TXA2 biosynthesis = TXA2 biosynthesis inhibitory test (bovine platelet microsome, TXB2 by radioimmunoassay); assay type: biochemical; conditions: in 10 μM
Method: TXA2 BIOSYNTHESIS INHIBITORY TEST
After a mixture of 70 μl (40 μg of protein, 100 mM Tris-hydrochloridebuffer, pH 7.4) of bovine platelet microsome and 10 μl (10% methanol-containing 100 mM Tris-hydrochloride buffer) of a test compound solution was settled at 0° C. for 5 minutes, 20 μl of prostaglandin H2 solution (0.1 nmol, in Tris-hydrochloride buffer described above containing 20% acetone) as substrate was added to the mixture. Five minutes after, 2.9 ml of stopping solution [100 mM, Trishydrochloride buffer containing 0.1 μM of OKY-1581; Tromb. Res. 23, 145 (1981)] was added to stop the reaction.
TXA2 was unstable in the buffer solution, and nonenzymatically converted to TXB2. An amount of thromboxane B2 (TXB2) formed in the reaction solution was determined by radioimmunoassay [F. A. Fitzpatrick et al., Methods in Enzymology, 86, 286 (1982)]. An inhibition rate of the test compound was calculated according to the following equation. [formula]
The amount of TXB2 formed in control refers to a value obtained when the same reaction was carried out, using a solvent containing no test compound.
The amount of TXB2 formed in blank refers to a value obtained when the reaction was carried out in the system in which the stopping solution was added prior to adding substrate.

dd strain male mice = assay: Acute toxicity test (MLD, mortality for seven days); assay type: in vivo; conditions: minimum lethal dose, 7 days; for Acute Toxicity (MLD) ip: intraperitoneal
Method: Using three dd strain male mice weighing 20±1 g, a test compound was orally (po; 300 mg/kg) or intraperitoneally (ip; 100 mg/kg) administered. MLD (the minimum lethal dose) was determined by observing the mortality for seven days after administration.

| Structure (SMILES) | Weight of Thrombus ([1]; 30 mg/kg) [mg] | Weight of Thrombus ([1]; 100 mg/kg, **P < 0.01) [mg] | TXA2 Antagonizing Activity (MEC) [2] [µg/mL] | TXA2 Biosynthesis Inhibitory Activity Inhibition Rate (TXA2 biosynthesis) [%] | Acute Toxicity (MLD) ip (dd strain male mice) [mg/kg] | Acute Toxicity (MLD) po (dd strain male mice) [mg/kg] |
| --- | --- | --- | --- | --- | --- | --- |
| O=C(O)COc1ccc(CCNS(=O)(=O)c2ccccc2)cc1 [BM13177] | 24.8 ± 1.8 | 18.9 ± 1.8 |  |  |  |  |
| O=C(O)Cc1ccc(CCNS(=O)(=O)c2ccc(Cl)cc2)cc1 [BM13505, reference compound] |  |  | 0.1 | 8 | > 100 | > 300 |
| O=C(O)c1ccc2c(c1)C(NCc1cccnc1)c1ccccc1CO2 (stereo not drawn) [Compound 9c, 11-[(3-Pyridyl)methyl]amino-6,11-dihydrodibenz[b,e]oxepin-2-carboxylic acid] |  |  | 30 | 100 | > 100 | > 300 |
| O=C(O)c1ccc2c(c1)C(SCc1cccnc1)c1ccccc1CO2 (stereo not drawn) [Compound 14b, 11-[(3-Pyridyl)methyl]thio-6,11-dihydrodibenz[b,e]oxepin-2-carboxylic acid] |  |  | 3 | 100 | > 100 | > 300 |
| O=C(O)c1ccc2c(c1)C(=NCc1cccnc1)c1ccccc1CO2 [Compound 25b, 11-[(3-Pyridyl)methyl]imino-6,11-dihydrodibenz[b,e]oxepin-2-carboxylic acid] |  |  | 1 | 100 | > 100 | > 300 |
| O=C(O)c1ccc2c(c1)/C(=C/Cn1ccnc1)c1ccccc1CO2 [Compound E-37b', (E)-11-[2-(1-imidazolyl)ethylidene]-6,11-dihydrodibenz[b,e]oxepin-2-carboxylic acid 0.2 hydrate] |  |  | 3 | 94 | > 100 | > 300 |
| COc1ccc2c(c1)ncn2C/C=C1\c2ccccc2COc2ccc(C(=O)O)cc21 [Compound E-61b, (E)-11-[2-(5-Methoxy-1-benzimidazolyl)ethylidene]-6,11-dihydrodibenz[b,e]oxepin-2-carboxylic acid] |  |  | 0.1 | 1 |  |  |
| COc1ccc2ncn(C/C=C3\c4ccccc4COc4ccc(C(=O)O)cc43)c2c1 [Compound E-62b, (E)-11-[2-(6-Methoxy-1-benzimidazolyl)ethylidene]-6,11-dihydrodibenz[b,e]oxepin-2-carboxylic acid] |  |  | 1 | 11 |  |  |
| COc1cc2ncn(C/C=C3\c4ccccc4COc4ccc(C(=O)O)cc43)c2cc1OC [Compound E-101b, (E)-11-[2-(5,6-Dimethoxy-1-benzimidazolyl)ethylidene]-6,11-dihydrodibenz[b,e]oxepin-2-carboxylic acid] |  |  | 0.3 | 17 | > 100 | > 300 |
| Cn1cnnc1SC/C=C1\c2ccccc2COc2ccc(C(=O)O)cc21 [Compound E-156b, (E)-11-[2-[(4-Methyl-4H-1,2,4-triazol-3-yl)thio]ethylidene]-6,11-dihydrodibenz[b,e]oxepin-2-carboxylic acid] |  |  | 1.0 | -10 | > 100 | > 300 |
| CN(C)CC/C=C1/c2ccccc2COc2ccc(CC(=O)O)cc21 [KW 4679, reference compound] |  |  | 30 | 1 | > 100 | > 300 |
| C/C(=C\c1ccc(Cc2cccnc2)cc1)C(=O)O [OKY 1581, reference compound] |  |  | 30 | 100 | > 100 | > 300 |
